Laboratory results as given in patent publication US11679100B2, “Methods of enhancing immunity” (The Regents of the University of California, priority 2018, dated 2023).

Legend:
[1] = test system: bone marrow derived murine macrophages; test: mRNA/miRNA expression in LA1-treated macrophages; format: cell-based
Procedure: Murine macrophage differentiation and culture-Bone marrow derived cells (BMDC) were aseptically harvested from 6-8 week-old female mice by flushing leg bones of euthanized mice with phosphate buffered saline (PBS), 0.5% BSA, 2 mM EDTA, incubating in red cell lysis buffer (155 mM NH4Cl, 10 mM NaHCO3 and 0.1 mM EDTA) and centrifuging over Histopaque 1083 to purify the mononuclear cells. Approximately 5×10^7 BMDC were purified by gradient centrifugation from the femurs and tibias of a single mouse. Purified mononuclear cells were cultured in RPMI+20% serum+50 ng/ml M-CSF (PeproTech). Macrophage Polarization-Bone marrow derived macrophages were polarized with either IFNγ (20 ng/ml, Peprotech) plus LPS (100 ng/ml, Sigma) or LPS alone for 24 h or IL-4 (20 ng/ml, Peprotech) for 24-48 h. In some cases, macrophages were incubated with inhibitors of Stat3 ([…]) or cMyc (10058-F4, Selleck). […] Secreted protein was measured in culture supernatants by ELISA assays. […] Sybr green-based qPCR was performed using primers to murine Gapdh (Mm_Gapdh_1_SG), Arg1 (Mm_[…]_SG_QT00134288) Tgfb (Mm_Tgfb_1_SG Qiagen QT00145250), […] (Mm_Il10_1_SG Qiagen QT00106169), Il6 (Mm_Il6_1_SG Qiagen QT00098875), Nos2 (Mm_Nos2_1_SG Qiagen QT00100275), Il12b (Mm_Il12b_1_SG Qiagen QT00153643), Ifng (Mm_Ifng 1_SG Qiagen QT01038821), Il1b (Mm_Il1b_2_SG Qiagen QT01048355), Tnfa (Mm_Tnfa_1_SG Qiagen QT00104006), Vegfa (Mm_Vegfa_1_SG Qiagen QT00160769), Pdgfb (Mm_Pdgfb_1_SG Qiagen QT00266910) and human GAPDH (Hs_GAPDH_1_SG Qiagen QT00079247), ARG1 (Hs_Arginase_1_SG Qiagen QT00068446, IL6 (Hs_Il6_1_SG Qiagen QT00083720), NOS2 (Hs_NOS2_1_SG Qiagen QT00068740), IL12B (Hs_IL12B_1_SG Qiagen QT00000364), and PDGFB (Hs_PDGFB_1_SG Qiagen QT00001260) (Qiagen QuantiTect Primer Assay). mRNA levels were normalized to Gapdh or GAPDH (ΔCt=Ct gene of interest-Ct Gapdh) and reported as relative mRNA expression (ΔΔCt=2^-(ΔCt sample-ΔCt control)) or fold change. […]

[2] = test system: LLC tumor cells; test: Adoptive transfer of LA1-treated tumor associated macrophages co-implanted with LLC tumor cells; format: in vivo, mice; settings: tumor-derived macrophages treated with LA1, mixed 1:1 with LLC cells
Procedure: In vivo Macrophage Adoptive Transfer Experiments—F4/80+ cells were isolated from single cell suspensions of 700-800 mg LLC tumors from donor WT or Itgam−/− mice by FACS sorting. Primary bone marrow derived macrophages from WT or Itgam−/− mice were polarized and harvested into a single cell suspension. Alternatively, WT tumor derived macrophages were incubated with LA1 or saline. Purified macrophages were admixed 1:1 with LLC tumor cells and 5×10^5 total cells were injected subcutaneously into syngeneic host WT or Itgam−/− mice. Tumors were excised and weights were determined 14 days after inoculation.

[3] = test system: LLC cells and macrophages; test: In vitro proliferation of LLC cells and macrophages; format: cell-based, murine
[4] = test system: CL66-luc tumor cell; test: Cytotoxicity assay, luciferase activity; format: cell-based; settings: 24, 48 and 72 hrs
Procedure: Cytotoxicity Assay—Taxol and LA1 cytotoxicity towards the CL66-luc tumor cell was determined by measuring luciferase activity in the tumor cells after exposure to LA1 or Taxol. CL66-luc cells (1,000 cells/well) were seeded into 96-well plates overnight at 37° C. prior to treatment with titrating concentrations of LA1 or Taxol dissolved in 1% DMSO in IDMEM for 24, 48 and 72 hrs. Cells treated with vehicle (1% DMSO in IDMEM) were a negative control. Media was aspirated from the cultured cells and 100 μL of a 150 μg/mL working solution of D-Luciferin in pre-warmed DMEM (10% FBS) was added to each well. The plates were incubated at 37° C. for 5 mins prior to reading luminescence using the EnSpire Plate Reader (PerkinElmer).

[5] = test system: human MDA-MB-231 mammary xenograft tumors; test: Orthotopic MDA-MB-231 mammary xenograft model; format: in vivo, mice
Procedure: Alternatively, 5 million MDA-MB 231 human breast cancer cells were injected orthotopically in the 4th mammary fat pad of 6-week old female nude mice. The tumors were allowed to establish for 35 days (at least 0.5 cm in diameter) and the tumor bearing mice were divided into three treatment groups including, vehicle, LA1 only (i.p.; 2.0 mg/kg; daily) and Taxol only (i.p.; 2.5 mg/kg every other day). Treatment was initiated on day 35 and continued until the end-point at day 58 post-tumor when all the mice were sacrificed and tumor tissue was harvested for histological analysis. Palpable tumors were measured using digital calipers 3 times weekly during the entire experiment to develop tumor growth curves.

O=C(O)c1ccc(-c2ccc(/C=C3\SC(=S)N(Cc4ccccc4)C3=O)o2)cc1 [LA1, leukadherin 1]
expression of Il1b, Tnfa, Il12, Nos2 and Ifng mRNAs ([1]; IFNγ+LPS stimulated bone marrow derived murine macrophages): increases in expression of Il1b, Tnfa, Il12, Nos2 and Ifng mRNAs
Let7a expression ([1]; macrophages): stimulated Let7a expression
Pdgfb and Il6 expression ([1]; macrophages): inhibited Pdgfb and Il6 expression
tumor growth after co-implantation of treated macrophages with LLC cells [2]: completely inhibited tumor growth
LLC or macrophage viability [3]: no direct effect on LLC or macrophage viability
CL66-Luc breast tumor cell growth in vitro [4]: no effect on CL66-Luc breast tumor cell growth in vitro
MDA-MB-231 xenograft tumor growth ([5]; LA1 2.0 mg/kg i.p. daily): suppressed the growth of orthotopic, human MDA-MB-231 mammary xenograft tumors
MDA-MB-231 tumor growth relative to control treated animals ([5]; mice which lack T cells): 50%
